Measured values from patent publication US20080227838A1, “Method for neuroprotection with glycoluril derivatives” (Cereprotec Incorporated, priority 2007, published 2008).

Legend:
[1] = tested on: experimental arrhythmias; settings: in vivo; cited from earlier work
[2] = in vivo; cited from earlier work
[3] = tested on: head trauma in mice; test: Brain edema (tissue water content) after closed head injury in mice; type: in vivo
Method: (§1) The cerebroprotective effect of mebicar was assessed in a model of head trauma in mice (Beni-Adani et al., 2001). This type of trauma produces brain edema (i.e. increase in water content), breakdown of the blood brain barrier (BBB) and clinical dysfunction. The clinical status of the mice is evaluated 1 and 24 hours after injury along with measurement of the extent of cerebral edema. The neurological deficit, assessed by a set of criteria termed the Neurological Severity Score (NSS), is maximal at 1 hour after the initiation of head trauma. The NSS slowly decreases over time from the initiation of head trauma, with the gradual spontaneous recovery of the mice.
(i) Induction of closed head injury (CHI) in a mice model. Male Sabra mice (strain from Hebrew University of Jerusalem, Israel), weighing 35 to 45 g, were used. CHI was induced under ether anesthesia. A metal rod weighing 333 g was allowed to free fall from a prefixed height (at 3 cm for a mouse weighing 28-32 g) over the exposed skull covering the left hemisphere in the midcoronal plane. The tip of the rod is covered with silicone, and it delivers the impact to the head that is fixed on the bottom plane of the trauma device. Sham-operated mice were anesthetized, their skull exposed, but trauma was not induced. After CHI the mice were assigned to vehicle or mebicar treatment.
(iii) Evaluation of water content (brain edema). The extent of cerebral edema was evaluated by determining the tissue water content in the injured hemisphere, as previously described (Beni-Adani et al., 2001). Briefly, mice were sacrificed 24 h after injury, the time of peak edema formation, and brain cortical samples of ˜20 mg were cut from the left (traumatized) and right (contralateral) hemispheres, from the site bordering the lesion. The right (non-injured) hemisphere was used as an internal control. Samples were weighed before and after drying in a desiccated oven for 24 h at 95° C. After weighing the “dried” sections, the brain water content was calculated as % H2O=[(wet weight−dry weight)×100]/wet weight.
(iv) Evaluation of drug effect on brain edema. In order to evaluate the effect of a drug, and to do it in a “clinical-relevant” setting, the drug is given 1 h after the injury, immediately after the initial assessment of NSS. This protocol allows a homogenous distribution of the mice between the drug and vehicle treatments, and ensures similar severity of injury in both groups. NSS is then evaluated again at 24 h after injury, and ΔNSS is calculated. The mice are then sacrificed, their brain removed and cortical segments from the site of injury, and contralaterally, are taken for evaluation of edema, as described above in (iii). […]

[4] = tested on: myocardial contractility; settings: in vivo; cited from earlier work
[5] = tested on: stress and hypoxia; settings: 100-1000 mg/kg, cited from earlier work
[6] = tested on: shock; settings: in vivo; cited from earlier work
[7] = tested on: neuroactive amino acids in the animal's brain; settings: cited from earlier work
[8] = tested on: head trauma in mice; test: Clinical evaluation (Neurological Severity Score) after closed head injury in mice; type: in vivo; settings: mebicar 750 mg/kg i.p., 5 mice out of 9, spontaneous recovery 2 out of 10 (20%)
Method: as §1
(i) Induction of closed head injury (CHI) in a mice model. […]
(ii) Clinical evaluation of the mice after CHI. Mice were evaluated to define the severity of injury and functional recovery by using a set of clinical criteria. […]
For assessment of posttraumatic neurological impairment, a Neurological Severity Score (NSS) previously described, modified and validated, was used (Shapira et al. 1988; Chen et al. 1996; Beni-Adani et al. 2001). […] The ΔNSS, calculated as the difference between NSS at 1 h and the NSS at any later time-point, is a parameter which reflects the degree of spontaneous recovery following brain injury, as described (Chen et al., 1996; Yatsiv et al., 2002; Beni-Adani et al., 2001). […]

[9] = in vivo; cited from earlier work; remark: listed apart in the source

In the case of `CN1C(=O)N(C)C2C1N(C)C(=O)N2C` (centres unmarked) [mebicar, 2,4,6,8-tetramethyl-2,4,6,8-tetraazabicyclo[3.3.0]-octane-3,7-dione], the “effect in experimental arrhythmias” value [1] is listed as “protective action”, the toxicity [2] is listed as “extremely low toxicity” and the “Water content in the brain % (contralateral hemisphere)” value ([3]; mice, closed head injury, mebicar 750 mg/kg intraperitoneally 1 h after injury, 24 h after injury, contralateral hemisphere, M ± SE) is listed as 77.9 ± 0.27%. For the same molecule, the “Water content in the brain % (traumatized area)” value ([3]; mice, closed head injury, mebicar 750 mg/kg intraperitoneally 1 h after injury, 24 h after injury, traumatized area, M ± SE) was 80.7 ± 0.41%, the “effect on water content of the contralateral hemisphere” value ([3]; traumatized mice, mebicar 750 mg/kg i.p.) was “decreased water content up to normal parameters” and the “less water accumulated in the traumatized hemisphere of the brain” value ([3]; traumatized mice, mebicar 750 mg/kg i.p., versus untreated traumatized mice) was “About 35%”. The “effect on myocardial contractility” value [4] was “increase the myocardial contractility”, the “effect on parameters of body function under extreme conditions” value ([5]; stress and hypoxia) was “protective action” and the “effect on muscle tone, movement coordination, working capacity” value ([5]; tested animals) was “without affecting the muscle tone, movement coordination or working capacity”. The “effect in shock; acid-base and oxygen homeostasis” value [6] was “antishock action”, the “change of balance of neuroactive amino acids in the brain” value [7] was “raising the content of gamma-butyric acid” and the “recovery in clinical function (share of mice)” value [8] was 55.5%. The metabolism [9] was “not metabolized” and the “time to leave the organism” value [9] was ≤ 24 h.
